These are literature values, as cited in patent US20030199496A1, “Pharmaceutical compositions containing alpha3beta4 nicotinic receptor antagonists and methods of their use” (priority 2002, published 2003).

This series deals with Purkinje nerve cells.

In the case of `COCC[C@H]1CC2CN3CCc4c([nH]c5ccccc45)[C@](C(=O)OC)(C2)[C@H]13` [18-MC, 18-methoxycoronaridine], the “neurotoxicity, especially on Purkinje nerve cells” value (at certain doses) was “devoid of these undesirable characteristics”. For the setting “human and animal subjects”, the tremors entry is “devoid of these undesirable characteristics”.
